The source of these data is patent publication US4540664A, “Method of saccharifying cellulose” (The United States of America as represented by the United …, priority 1983, dated 1985).

Structures are written as SMILES.

This experiment has as its system extracellular cellulase of Clostridium thermocellum ATTC 27405. The experiment is described as follows: Saccharification of Avicel by desalted cellulase, followed by the decrease in turbidity at 660 nm. The format is biochemical. To be noted: Avicel substrate.

Method: In these experiments 50 μg of the protein that had been desalted by passage through the gel filtration resin was incubated with 3 mg of the substrate in 3 ml of substrate buffer. The buffer was 0.1M succinic acid/NaOH with a pH of 5.5. The suspension was diluted to 5 ml. No Ca^2+ was added. The cellulase activity was monitored by the decrease in turbidity of the suspension measured at 660 nm. By this method, the turbidity of the suspension decreases as more cellulose is saccharified, and less light is absorbed.
The reaction conditions were the same as for the samples used in FIG. 1 except that each sample included 5 mM DTT and either no additions, 10 mM EDTA, 7 mM CaCl2, or 7 mM MgCl2.

For `O[C@H](CS)[C@H](O)CS` (racemic) [DTT, dithiothreitol], for the setting “2 mM DTT, no Ca2+ added, pH 5.5, compared with no reducing agent (FIG. 1)”, the “effect of DTT on extent and duration of saccharification” value is “saccharification continues over 90 hours and is much more extensive”. The “effect of DTT on rate of saccharification” value (5 mM DTT, no Ca2+ added, pH 5.5 (FIG. 1)) was “rate of saccharification is greater”.

For `O=C(O)CN(CCN(CC(=O)O)CC(=O)O)CC(=O)O` [EDTA], the “effect of EDTA on saccharification” value (10 mM EDTA, 5 mM DTT, 0.1M succinic acid/NaOH pH 5.5 (FIG. 2)) was “completely inhibits saccharification”.
